Reference: the NIST ThermoML archive (doi:10.1021/acs.jced.8b00201)

Assay: xn = mol fraction of the nth substance listed
Settings: 100 kPa, Liquid; for mass density: Vibrating tube method; for viscosity: Concentric cylinders viscometry

CCCCCCCO [heptan-1-ol] + O=C1CCCCC1
Settings	mass density, 308.15 K [kg/m3]	mass density, 313.15 K [kg/m3]	mass density, 318.15 K [kg/m3]	mass density, 323.15 K [kg/m3]	viscosity, 313.15 K [mPa·s]	viscosity, 318.15 K [mPa·s]	viscosity, 323.15 K [mPa·s]
x2 = 0	811.6	808	804.4	800.7	3.71	3.21	2.79
x2 = 0.0809	818.7	814.9	811.2	807.5	3.24	2.83	2.49
x2 = 0.1601	825.9	822.1	818.3	814.5	2.86	2.5	2.23
x2 = 0.2406	833.6	829.7	825.8	821.9	2.54	2.23	2.01
x2 = 0.3511	845	840.9	836.9	833	2.19	1.95	1.77
x2 = 0.4227	852.8	848.7	844.6	840.7	2.03	1.82	1.64
x2 = 0.5754	870.9	866.6	862.3	858.4	1.77	1.61	1.45
x2 = 0.6492	880.4	876	871.7	867.7	1.72	1.57	1.4
x2 = 0.7422	893.1	888.6	884.2	880.3	1.65	1.51	1.35
x2 = 0.8513	909.2	904.5	900.2	896.4	1.62	1.49	1.33
x2 = 0.9385	923.1	918.4	914.1	910.2	1.6	1.47	1.33
